Results as given in BigSolDB 2.1.

CC1=C[C@H](O)CC(C)(C)[C@H]1/C=C/C(C)=C/C=C/C(C)=C/C=C/C=C(C)/C=C/C=C(C)/C=C/C1=C(C)C[C@@H](O)CC1(C)C
solubility (mole fraction)
Conditions | 278.15 K | 283.15 K | 288.15 K | 293.15 K | 298.15 K | 303.15 K | 308.15 K | 313.15 K | 318.15 K | 323.15 K
in ethanol | 1.75e-05 | 1.96e-05 | 2.27e-05 | 2.63e-05 | 3.16e-05 | 3.75e-05 | 4.48e-05 | 5.32e-05 | 6.42e-05 | 7.72e-05
in ethylene glycol | 2.68e-07 | 3.03e-07 | 3.48e-07 | 3.89e-07 | 4.43e-07 | 5.17e-07 | 6.12e-07 | 7.13e-07 | 8.45e-07 | 9.61e-07
in isopropanol | 9.74e-07 | 1.03e-06 | 1.1e-06 | 1.18e-06 | 1.27e-06 | 1.39e-06 | 1.51e-06 | 1.67e-06 | 1.86e-06 | 2.13e-06
in methanol | 2.31e-05 | 2.84e-05 | 3.77e-05 | 4.91e-05 | 6.72e-05 | 8.41e-05 | 0.000107 | 0.000134 | 0.000166 | 0.000207
